# Laboratory results reported in paper PMC6348381, “Discovery of an MLLT1/3 YEATS Domain Chemical Probe” (Angewandte Chemie (International Ed. in English), 2018).
# Experiments:
# [1] = target: T1, MLLT3 (Homo sapiens, UniProt P42568); assay: AlphaScreen assay, MLLT3; assay type: binding; settings: Figure 1
# T1 construct: made in house; host or cells: E. coli Rosetta
# Procedure: Figure 1 Identified hit MLLT1/3 inhibitor compound 1.
# II.IV Protein Expression and Purification
# Human bromodomains were cloned, expressed and purified as previously described. The cloning, expression and purification of human YEATS domains are described as follows; Sequences for the wild type YEATS domains of MLLT1, MLLT3, GAS41 and YEATS2 were cloned into expression vectors (Table S1). E. coli Rosetta cells were grown in TB medium at 37°C. Overexpression was induced after five hours by addition of IPTG to a final concentration of 0.4 mM and cells were incubated at 17°C overnight. Cells were harvested by centrifugation and the cell pellet was resuspended in cold binding buffer (50 mM Tris at pH 7.5, 500 mM NaCl, 20 mM imidazole, 2 mM DTT) on a magnetic stirring plate at 4°C. The suspension was lysed using an Avestin EmulsiFlex-C5 homogeniser (1 pass without pressure, four passes with pressure between 1000-1500 bar). The lysate was clarified via centrifugation at 16,000 rpm at 4°C for 1 hour (JLA-16 rotor in Beckmann Coulter Avanti J-26S XP centrifuge). The supernatant was loaded onto a standard NiNTA column (HisTrap FF, 5 ml, GE Healthcare Lifesciences) on an ÄKTAxpress system (GE). […] Protein concentration was quantified via extinction at […] (NanoDrop ND-1000 Spectrophotometer) and protein identity was verified via SDS-PAGE and LC/MS. […]
# [2] = target: T2, MLLT1 YD (Homo sapiens, UniProt Q03111); assay: Isothermal titration calorimetry (ITC), MLLT1 YD; assay type: binding
# T2 construct: made in house; host or cells: E. coli Rosetta
# T2 sequence (Q03111 1-138 limits assumed): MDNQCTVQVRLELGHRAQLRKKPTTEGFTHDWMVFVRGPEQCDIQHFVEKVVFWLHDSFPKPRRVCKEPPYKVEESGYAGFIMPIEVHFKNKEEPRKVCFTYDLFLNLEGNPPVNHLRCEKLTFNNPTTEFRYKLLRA
# Procedure: Experiments were carried out on a Nano -ITC Standard Volume Instrument (TA Instruments).
# All experiments were carried out at 25 °C in 20 mM HEPES pH 7.5, 150 mM NaCl, 0.5 mM TCEP and 5% glycerol. Protein soluti ons were buffer exchanged by gel filtration. The titrations were conducted using an initial injection of 2 μL followed by 32 injections of 8 μL.
# Background dilution heat was subtracted from each experiment. Thermodynamic parameters
# changes in free energy, enthalpy and entropy respectively. Independent single site binding models were employed in data analysis.
# [3] = target: T3, YEATS2 (Homo sapiens, UniProt Q9ULM3); assay: AlphaScreen selectivity screen, YEATS2; assay type: binding
# T3 construct: made in house; host or cells: E. coli Rosetta
# T3 sequence (Q9ULM3 200-345 limits assumed): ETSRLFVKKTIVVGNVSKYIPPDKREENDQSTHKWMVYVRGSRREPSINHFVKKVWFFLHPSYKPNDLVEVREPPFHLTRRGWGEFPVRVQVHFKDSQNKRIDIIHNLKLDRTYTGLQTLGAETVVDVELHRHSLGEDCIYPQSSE
# From the text: (§1) IC50 (µM) IC50 (µM) IC50 (µM) IC50 (µM) (µM) (µM) (µM)
# (§2) Supplementary Table 1. […]
# [4] = target: FALZ (Homo sapiens, UniProt Q12830); assay: AlphaScreen selectivity screen, FALZ; assay type: binding
# From the text: as §1, §2
# [5] = target: T4, endogenous MLLT1 in MV4;11 cells (Homo sapiens, UniProt Q03111); assay: Cellular thermal shift assay (CETSA), MV4;11 cells; assay type: cell-based; settings: up to 10 μM
# T4 construct: with endogenous MLLT1 in MV4;11 cells; endogenous in cells; host or cells: MV4;11
# T4 sequence (Q03111 whole entry): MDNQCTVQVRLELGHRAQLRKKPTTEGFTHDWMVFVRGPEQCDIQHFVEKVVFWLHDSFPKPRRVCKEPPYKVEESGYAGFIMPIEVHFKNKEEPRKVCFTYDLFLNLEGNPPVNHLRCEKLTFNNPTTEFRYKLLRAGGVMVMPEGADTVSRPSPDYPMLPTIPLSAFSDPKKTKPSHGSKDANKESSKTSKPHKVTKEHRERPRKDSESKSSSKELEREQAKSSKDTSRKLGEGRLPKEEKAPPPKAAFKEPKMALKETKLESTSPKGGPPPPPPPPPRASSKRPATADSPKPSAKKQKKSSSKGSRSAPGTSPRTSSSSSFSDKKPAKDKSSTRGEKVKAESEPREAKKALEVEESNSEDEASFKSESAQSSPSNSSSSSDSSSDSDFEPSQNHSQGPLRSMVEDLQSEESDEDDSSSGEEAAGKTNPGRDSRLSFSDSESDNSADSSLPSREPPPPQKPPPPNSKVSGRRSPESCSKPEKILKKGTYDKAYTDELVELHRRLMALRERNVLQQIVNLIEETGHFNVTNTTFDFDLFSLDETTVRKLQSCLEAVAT
# Procedure: Supplementary Table 2. Thermal stabilisation of compound 1, 92 and Bromosporine with recombinant human bromodomain proteins. *50 µM compound concentration. †10 µM compound […]
# II.VIII Cellular Thermal Shift Assay[6]
# HEK293 and MV4;11 cells were cultured at 37 °C in a humidified 5% CO2 atmosphere in DMEM Medium containing 10% FBS, respectively. Cells were grown until approximately […]
# DMSO final concentrati on) for 30 minutes. Cells were then collected, washed with PBS, transferred in PCR tubes, and pelleted by centrifugation (300 g, 3 min, RT.) The PBS was removed, and the cell pellets heated at the indicated temperature for 3 minutes in a PCR machine (UNO96 , VMR) and then placed on ice. Lysis buffer (50 mM Tris pH 7.5, 0.8% v/v NP-40, 5% v/v glycerol, 1.5 mM MgCl2, 100 mM NaCl, 25 mM NaF, 1mM Na3VO4, 1mM PMSF, 1mM DTT, 10 μg/mL TLCK, 1 μg/mL Leupeptin, 1 μg/mL Aprotinin, 1 μg/mL soy bean trypsin, ≥250 units/ mL Benzonase) was added and the cells lysed by 3 freeze -thaw cycles in liquid nitrogen. Aggregated proteins were removed by centrifugation (17000 g, 20 min, 4 °C) and the protein concentration of the retained soluble fraction determined. 4× sample loading buffer (Bio-Rad) containing 20% v/v DTT was added and samples were heated for 6 min at 90 °C prior to separation by SDS -PAGE. […]
# [6] = test system: MV4;11 AML cells; assay: qPCR gene expression in MV4;11 cells; assay type: cell-based, human; settings: 1 μM, 72 h
# Procedure: II.XII Analysis of gene expression by quantitative polymerase chain reaction (qPCR) […]
# MV4;11 cells were cultured at 37 °C in a humidified 5% CO2 atmosphere in RPMI medium containing 10% FBS and 1% L-glutamine. Cells were seeded at a density of 2 x 10^6 cells/well in 6 well plates pre-coated in polyhema, to enable suspension culture. Cells were […]
# and washing with PBS, RNA was extracted from cells using RNeasy Mini Kit (Qiagen), following the manufacturer’s protocol. Total RNA was quantified by Nanodrop and 500 ng of RNA was converted to cDNA using GoScript Reverse Transcription System (Promega). The final cDNA products were quantified by QPCR using FAM dye-labelled Taqman primers and probe sets (see table below). Data was analysed using the comparative cycle threshold (CT) method where CT values were normalised by subtracting that from an endogenous housekeeping gene (VIC dye-labelled ACTB). The gene expression levels from compound-treated cells are presented as relative to those of DMSO treated control cells. Statistical analyses were carried out using two-way ANOVA (GraphPad Prism 7).
# ACTB (Beta Actin) Endogenous Control 4326315E
# Supplementary Table 4. Taqman Gene Expression Assays (Life Technologies). Taqman MGB probes have 5’ FAM reporter dye (or VIC) and 3’ non-fluorescent quencher. […]
# T1 sequence (P42568 1-138 limits assumed): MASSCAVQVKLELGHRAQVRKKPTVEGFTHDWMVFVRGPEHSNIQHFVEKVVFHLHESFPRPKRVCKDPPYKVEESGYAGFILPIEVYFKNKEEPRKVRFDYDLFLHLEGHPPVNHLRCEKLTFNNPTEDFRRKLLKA
Compound,IC50 [1] [nM],Kd [2] [nM],IC50 [3] [nM],inhibition of FALZ ([4]; 10 μM using AS),IC50 ([4]; AlphaScreen selectivity screen) [nM],thermal stabilisation of MLLT1 (CETSA) [5],"gene expression of MYC, MPO, DDN, CTSG, CD86 (qPCR) [6]",CD86 gene expression (qPCR) ([6]; compared to DMSO),DDN gene expression (qPCR) ([6]; compared to DMSO),MYC gene expression (qPCR) ([6]; compared to DMSO)
COC(=O)c1ccc(C(=O)Nc2ccc3[nH]c(CN4CCCCC4)nc3c2)cc1 [Compound 1],1000,1000,,,,,,,,
C[C@H]1CCCN1Cc1nc2cc(NC(=O)c3ccc4c(cnn4C)c3)ccc2[nH]1 [Compound 92],,,> 10000,no inhibition,> 10000,stabilisation of MLLT1,changed gene expression of 3/5 genes,increase,reduction,reduction
